Measured values taken from PubChem BioAssay AID332 (DTP/NCI, 2004).
“And” between values parts separate entries of the source, which are not always exact repeats. Equal values may be shown once. Inconclusive results are not listed.

System: mice, ADJ-PC-20 plasma cell tumor sc, T/C %
Test: NCI In Vivo Anticancer Drug Screen. Data for tumor model ADJ-PC-20 Plasma Cell (subcutaneous) in unknown mice
Details: endpoint: mean tumor weight, higher = larger tumour
Protocol: The antitumor activity of compounds was measured in mice bearing transplantable tumors. Survival or tumor size were measured and the results are expressed as the measurement made in the treated group (T) divided by the measurement made in the vehicle treated control group (C). The tumor model used in this assay is ADJ-PC-20 Plasma Cell (subcutaneous) in unknown mice

[1] = dose: 2.0 mg/kg/injection, schedule: Q01DX010 (ip), vehicle: carboxymethylcellulose (CMC)
[2] = dose: 16.0 mg/kg/injection, schedule: Q01DX010 (ip), vehicle: carboxymethylcellulose (CMC)
[3] = dose: 32.0 mg/kg/injection, schedule: Q01DX010 (ip), vehicle: carboxymethylcellulose (CMC)
[4] = dose: 0.63 mg/kg/injection, schedule: Q01DX010 (ip), vehicle: carboxymethylcellulose (CMC)
[5] = dose: 1.25 mg/kg/injection, schedule: Q01DX010 (ip), vehicle: carboxymethylcellulose (CMC)
[6] = dose: 6.25 mg/kg/injection, schedule: Q01DX010 (ip), vehicle: carboxymethylcellulose (CMC)
[7] = dose: 12.5 mg/kg/injection, schedule: Q01DX010 (ip), vehicle: carboxymethylcellulose (CMC)
[8] = dose: 62.5 mg/kg/injection, schedule: Q01DX010 (ip), vehicle: carboxymethylcellulose (CMC)
[9] = dose: 4.0 mg/kg/injection, schedule: Q01DX010 (ip), vehicle: carboxymethylcellulose (CMC)
[10] = dose: 8.0 mg/kg/injection, schedule: Q01DX010 (ip), vehicle: carboxymethylcellulose (CMC)
[11] = dose: 6.25 mg/kg/injection, schedule: Q01DX010 (ip), vehicle: methylcellulose (MC)
[12] = dose: 12.5 mg/kg/injection, schedule: Q01DX010 (ip), vehicle: methylcellulose (MC)

With `CC(=O)OCC1OC(n2ncc(=O)[nH]c2=O)C(OC(C)=O)C1OC(C)=O` (configuration not stated) the T/C (dose: 125.0 mg/kg/injection, schedule: Q01DX010 (ip), vehicle: other) was 55 % of control, the T/C (dose: 250.0 mg/kg/injection, schedule: Q01DX010 (ip), vehicle: other) was 58 % of control and the T/C (dose: 500.0 mg/kg/injection, schedule: Q01DX010 (ip), vehicle: other) was 48 % of control.

In the case of `CC(=O)N(C)C`, the T/C (dose: 250.0 mg/kg/injection, schedule: Q01DX010 (ip), vehicle: saline) is reported as 60 % of control, the T/C (dose: 500.0 mg/kg/injection, schedule: Q01DX010 (ip), vehicle: saline) is reported as 75 % of control and the T/C (dose: 1000.0 mg/kg/injection, schedule: Q01DX010 (ip), vehicle: saline) is reported as 51 % of control.

With `CN(C)c1ccc(/C=C\c2ccnc3ccccc23)cc1` the T/C (dose: 6.3 mg/kg/injection, schedule: Q01DX010 (ip), vehicle: water) was 70 % of control, the T/C (dose: 12.5 mg/kg/injection, schedule: Q01DX010 (ip), vehicle: water) was 52 % of control and the T/C (dose: 25.0 mg/kg/injection, schedule: Q01DX010 (ip), vehicle: water) was 48 % of control. The T/C (dose: 25.0 mg/kg/injection, schedule: Q01DX011 (ip), vehicle: water) was 92 % of control.

In the case of `CN(Cc1cnc2nc(N)nc(N)c2n1)c1ccc(C(=O)N[C@@H](CCC(=O)O)C(=O)O)cc1`, the T/C (dose: 0.04 mg/kg/injection, schedule: Q01DX010 (ip), vehicle: other) is reported as 117 % of control, the T/C (dose: 0.08 mg/kg/injection, schedule: Q01DX010 (ip), vehicle: other) is reported as 107 % of control and the T/C (dose: 0.15 mg/kg/injection, schedule: Q01DX010 (ip), vehicle: other) is reported as 78 % of control. For the same compound, the T/C (dose: 0.31 mg/kg/injection, schedule: Q01DX011 (ip), vehicle: other) was 46 % of control, the T/C (dose: 0.62 mg/kg/injection, schedule: Q01DX010 (ip), vehicle: other) was 68 % of control and 89 % of control and the T/C (dose: 0.62 mg/kg/injection, schedule: Q01DX011 (ip), vehicle: other) was 59 % of control. The T/C (dose: 0.63 mg/kg/injection, schedule: Q01DX010 (ip), vehicle: other) was 88 % of control and 107 % of control.

For `O=c1cnn(C2OC(CO)C(O)C2O)c(=O)[nH]1` (configuration not stated), the T/C (dose: 31.0 mg/kg/injection, schedule: Q01DX011 (ip), vehicle: water) was 51 % of control, the T/C (dose: 62.5 mg/kg/injection, schedule: Q01DX011 (ip), vehicle: water) was 52 % of control and the T/C (dose: 125.0 mg/kg/injection, schedule: Q01DX010 (ip), vehicle: water) was 41 % of control. The T/C (dose: 125.0 mg/kg/injection, schedule: Q01DX011 (ip), vehicle: water) was 69 % of control, the T/C (dose: 250.0 mg/kg/injection, schedule: Q01DX010 (ip), vehicle: water) was 49 % of control and the T/C (dose: 250.0 mg/kg/injection, schedule: Q01DX011 (ip), vehicle: water) was 30 % of control.

With `CN(C)c1ccc(/C=C/c2ccnc3ccccc23)cc1` the T/C [1] was 117 % of control, the T/C (dose: 4.0 mg/kg/injection, schedule: Q01DX010 (ip), vehicle: water) was 81 % of control and the T/C [2] was 89 % of control and 99 % of control. For the same compound, the T/C (dose: 16.0 mg/kg/injection, schedule: Q01DX010 (ip), vehicle: water) was 78 % of control and the T/C [3] was 28 % of control.

For `NC(Cc1ccc(N(CCCl)CCCl)cc1)C(=O)O` (configuration not stated), the T/C (dose: 0.08 mg/kg/injection, schedule: Q01DX010 (ip), vehicle: carboxymethylcellulose (CMC)) was 99 % of control, the T/C (dose: 0.16 mg/kg/injection, schedule: Q01DX010 (ip), vehicle: carboxymethylcellulose (CMC)) was 107 % of control and the T/C [4] was 79 % of control. The T/C [5] was 9 % of control.

For `CC1CCOS(=O)O1` (configuration not stated), the T/C (dose: 10.0 mg/kg/injection, schedule: Q01DX010 (ip), vehicle: carboxymethylcellulose (CMC)) was 65 % of control, the T/C (dose: 20.0 mg/kg/injection, schedule: Q01DX010 (ip), vehicle: carboxymethylcellulose (CMC)) was 50 % of control and the T/C (dose: 40.0 mg/kg/injection, schedule: Q01DX010 (ip), vehicle: carboxymethylcellulose (CMC)) was 32 % of control.

In the case of `C[n+]1c2ccccc2nc2c(N)cc(N)cc21`, the T/C [6] is reported as 92 % of control, the T/C [7] is reported as 114 % of control and the T/C (dose: 25.0 mg/kg/injection, schedule: Q01DX010 (ip), vehicle: carboxymethylcellulose (CMC)) is reported as 99 % of control.

For `S=P(N1CCOCC1)(N1CC1)N1CC1`, the T/C (dose: 3.1 mg/kg/injection, schedule: Q01DX010 (ip), vehicle: carboxymethylcellulose (CMC)) was 88 % of control and 100 % of control, the T/C (dose: 6.3 mg/kg/injection, schedule: Q01DX010 (ip), vehicle: carboxymethylcellulose (CMC)) was 116 % of control and the T/C [7] was 1 % of control.

`CSCS(=O)C[C@H](CO)NC(=O)/C=C/c1c(C)[nH]c(=O)[nH]c1=O` (some centres not stated) was tested, and the T/C (dose: 0.25 mg/kg/injection, schedule: Q01DX010 (ip), vehicle: saline) was 71 % of control and the T/C (dose: 0.5 mg/kg/injection, schedule: Q01DX010 (ip), vehicle: saline) was 82 % of control.

`Clc1ncnc2nc[nH]c12` was tested, and the T/C (dose: 7.8 mg/kg/injection, schedule: Q01DX010 (ip), vehicle: carboxymethylcellulose (CMC)) was 153 % of control, the T/C (dose: 15.6 mg/kg/injection, schedule: Q01DX010 (ip), vehicle: carboxymethylcellulose (CMC)) was 86 % of control and the T/C (dose: 31.2 mg/kg/injection, schedule: Q01DX010 (ip), vehicle: carboxymethylcellulose (CMC)) was 64 % of control. The T/C (dose: 31.25 mg/kg/injection, schedule: Q01DX010 (ip), vehicle: carboxymethylcellulose (CMC)) was 14 % of control, the T/C [8] was 3 % of control and the T/C (dose: 125.0 mg/kg/injection, schedule: Q01DX010 (ip), vehicle: carboxymethylcellulose (CMC)) was 4 % of control.

In the case of `O=C(O)CCCc1ccc(N(CCCl)CCCl)cc1`, the T/C [6] is reported as 120 % of control and the T/C [7] is reported as 58 % of control.

With `c1ccc(CNc2ncnc3[nH]ncc23)cc1` the T/C [9] was 110 % of control, the T/C [10] was 108 % of control and the T/C [2] was 82 % of control. The T/C [3] was 65 % of control.

`CN(C)c1nc(N(C)C)nc(N(C)C)n1` was tested, and the T/C [8] was 97 % of control and the T/C (dose: 250.0 mg/kg/injection, schedule: Q01DX010 (ip), vehicle: carboxymethylcellulose (CMC)) was 58 % of control.

With `Nc1nc(=S)c2ncn(C3OC(CO)C(O)C3O)c2[nH]1` (configuration not stated) the T/C (dose: 0.31 mg/kg/injection, schedule: Q01DX010 (ip), vehicle: carboxymethylcellulose (CMC)) was 63 % of control, the T/C [4] was 31 % of control and the T/C [5] was 7 % of control. The T/C (dose: 2.5 mg/kg/injection, schedule: Q01DX010 (ip), vehicle: carboxymethylcellulose (CMC)) was 1 % of control.

For `OCC1OC(n2cnc3c(=S)nc[nH]c32)C(O)C1O` (configuration not stated), the T/C (dose: 0.5 mg/kg/injection, schedule: Q01DX010 (ip), vehicle: carboxymethylcellulose (CMC)) was 87 % of control, the T/C (dose: 1.0 mg/kg/injection, schedule: Q01DX010 (ip), vehicle: carboxymethylcellulose (CMC)) was 51 % of control and the T/C [1] was 25 % of control. The T/C [9] was 2 % of control and the T/C [10] was 22 % of control.

For `N=C(N)c1ccc(Nc2ccc(C(=N)N)cc2)cc1`, the T/C [11] was 116 % of control and the T/C [12] was 105 % of control.

With `Nc1nc2n[nH]nc2c(=O)[nH]1` the T/C (dose: 12.5 mg/kg/injection, schedule: Q01DX010 (ip), vehicle: other) was 113 % of control, the T/C (dose: 75.0 mg/kg/injection, schedule: Q01DX010 (ip), vehicle: other) was 58 % of control and the T/C (dose: 100.0 mg/kg/injection, schedule: Q01DX010 (ip), vehicle: other) was 83 % of control.

For `CCCNc1ncnc2[nH]ncc12`, the T/C (dose: 5.0 mg/kg/injection, schedule: Q01DX010 (ip), vehicle: water) was 97 % of control, the T/C (dose: 10.0 mg/kg/injection, schedule: Q01DX010 (ip), vehicle: water) was 86 % of control and the T/C (dose: 20.0 mg/kg/injection, schedule: Q01DX010 (ip), vehicle: water) was 95 % of control.

With `CS(=O)(=O)OCCCCOS(C)(=O)=O` the T/C [11] was 93 % of control, the T/C [12] was 66 % of control and the T/C (dose: 25.0 mg/kg/injection, schedule: Q01DX010 (ip), vehicle: methylcellulose (MC)) was 71 % of control and 72 % of control. For the same compound, the T/C (dose: 50.0 mg/kg/injection, schedule: Q01DX010 (ip), vehicle: methylcellulose (MC)) was 42 % of control.

`Nc1nc(SCc2ccccc2)c2[nH]cnc2n1` was tested, and the T/C (dose: 0.3 mg/kg/injection, schedule: Q01DX010 (ip), vehicle: carboxymethylcellulose (CMC)) was 94 % of control, the T/C (dose: 1.2 mg/kg/injection, schedule: Q01DX010 (ip), vehicle: carboxymethylcellulose (CMC)) was 81 % of control and the T/C (dose: 2.4 mg/kg/injection, schedule: Q01DX010 (ip), vehicle: carboxymethylcellulose (CMC)) was 119 % of control. The T/C (dose: 4.7 mg/kg/injection, schedule: Q01DX010 (ip), vehicle: carboxymethylcellulose (CMC)) was 9 % of control.
